Laboratory results published in patent publication US11377444B2, “Pyridopyrimidine compounds acting as mTORC 1/2 dual inhibitors” (MEDSHINE DISCOVERY INC., priority 2017, dated 2022).

Experiments:
MCF-7 cell = assay: Cell proliferation inhibitory activity (Cell-Titer-Glo), MCF-7; type: cell-based; conditions: Homo sapiens, MCF7, 72 h; 3 days incubation
Source text: (§1) Experimental Embodiment 2: Evaluation of Cell Proliferation Inhibitory Activity
(§2) Experiment objective: To detect cell proliferation inhibitory activity of the tested compounds.
(§3) Experimental principle: The luciferase in the Cell-Titer-Glo reagent produces oxyluciferin using luciferin, oxygen and ATP as reaction substrates, and releases energy in the form of light. Since the reaction of luciferase requires ATP, the total amount of light generated by the reaction is proportional to the total amount of ATP that reflects cell viability.
(§4) Cell lines: MCF-7 cell line […], HT-29 cell line (ATCC-HTB-38), OE21 (ECACC-96062201), NCI-N87 cell line (ATCC-CRL-5822)
(§5) Cell culture medium: (RPMI 1640 culture medium (Invitrogen #1868546; 10% serum Invitrogen #1804958; L-glutamine 1×, Invitrogen #1830863; dual antibiotic Hyclone #J170012))
(§6) Cell Titer-Glo® Luminescent Cell Viability Assay Kit (Promega #G7573)
(§7) The cells were inoculated in a 384- or 96-well plate with a density of 1000 cells per well and 25 μL per well according to the instructions of the cell inoculating plate. The edge wells were not inoculated with cells, and was supplemented with […].
(§8) (i) The mother solution of the compound was 10 mM, and diluted with DMSO to an initial concentration of 4 mM. The compound was added to the compound mother solution, 9 μL per well.
(§9) (ii) The compound was diluted with ECHO liquid-handling workstation. Each well of the cell plate was added with 125 nL compound. Each well of the cell wells in 2nd column and 23rd column was added with 125 nL DMSO, and each of the PBS wells in 1st column and 24th column was added with 125 nL DMSO.
(§10) (iii) Each well of the cell plate was supplemented with 25 μL culture medium, the final volume in each well of the cell plate was 50 μL, […] 3 times dilution, 10 concentrations, each concentration was duplicated in left and right wells, the final DMSO concentration was 0.25%.
(§11) 2.3. After addition of the compound, centrifugation was performed at 1000 rpm for 1 min, and the cell plate was placed in a 37° C., 5% CO2 incubator for 3 days.
(§12) The cell plate was taken out from the incubator and equilibrated at room temperature for 30 minutes. 25 μL Cell-Titer-Glo reagent was added to each well, shaken for one minute to mix thoroughly, centrifuged at 1000 rpm for 1 minute. After 10 minutes, the plate was read on PerkinElmer Envision with a […] reading time was set at 0.2 second.

HT-29 cell = assay: Cell proliferation inhibitory activity (Cell-Titer-Glo), HT-29; type: cell-based; conditions: Homo sapiens, HT-29, 72 h, 3 days incubation
Source text: as §1, §2, §3, §4, §5, §6, §7, §8, §9, §10, §11, §12

OE21 cell = assay: Cell proliferation inhibitory activity (Cell-Titer-Glo), OE21; type: cell-based; conditions: OE21, 72 h; 3 days incubation
Source text: as §1, §2, §3, §4, §5, §6, §7, §8, §9, §10, §11, §12

N87 cell = assay: Cell proliferation inhibitory activity (Cell-Titer-Glo), N87; type: cell-based; conditions: 72 h; 3 days incubation
Source text: as §1, §2, §3, §4, §5, §6, §7, §8, §9, §10, §11, §12

[1] = target: T1, mTOR kinase (mTORC1 and mTORC2 kinase complex) (Homo sapiens, UniProt P42345); assay: In vitro evaluation of mTOR kinase inhibitory activity (DiscoverX ligand-bead competition binding, qPCR readout)
T1 construct: purchased DiscoverX; host or cells: HEK-293
Summary of the method: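 Tagged mTOR expressed in HEK-293 cells was combined with streptavidin beads carrying biotinylated ligand and DMSO-dissolved compound, shaken 1 h at room temperature. Beads were washed, then eluted 30 min with […] non-biotin affinity ligand. Kinase in eluate quantified by qPCR.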

IC50 (MCF-7 cell) | IC50 (HT-29 cell) | Kd [1] | SMILES | IC50 (OE21 cell) | IC50 (N87 cell)
95 nM | 316 nM |  | CNC(=O)c1cccc(-c2ccc3c(N4CCOC[C@@H]4C)nc(N4CCOC[C@@H]4C)nc3n2)c1 [AZD2014, reference compound] | 148 nM | 59 nM
163 nM | 607 nM | 0.38 nM | CNC(=O)c1cccc(-c2ccc3c(N4CCOC[C@@H]4C)nc(N4CCOC5(CCC5)C4)nc3n2)c1 [Embodiment 23] | 257 nM | 94 nM
208 nM |  | 0.3 nM | C[C@H]1COCCN1c1nc(N2CCOC3(CC3)C2)nc2nc(-c3cccc(C(N)=O)c3)ccc12 [Embodiment 51] |  | 59 nM
